Results on 6 compounds are retold here after ChEMBL document CHEMBL1124789, “Angiotensin-converting enzyme inhibitors. 9. Novel [[N-(1-carboxy-3-phenylpropyl)amino]acyl]glycine derivatives with diuretic activity” (J Med Chem, 1990).

SMILES strings stand for the structures. Calls of active or inactive are those of the source. The calls are words filed in the database; no cut-off is given here.

In test [1] the target is T1, Angiotensin-converting enzyme (Rattus norvegicus) (UniProt P47820).
T1 sequence (whole entry): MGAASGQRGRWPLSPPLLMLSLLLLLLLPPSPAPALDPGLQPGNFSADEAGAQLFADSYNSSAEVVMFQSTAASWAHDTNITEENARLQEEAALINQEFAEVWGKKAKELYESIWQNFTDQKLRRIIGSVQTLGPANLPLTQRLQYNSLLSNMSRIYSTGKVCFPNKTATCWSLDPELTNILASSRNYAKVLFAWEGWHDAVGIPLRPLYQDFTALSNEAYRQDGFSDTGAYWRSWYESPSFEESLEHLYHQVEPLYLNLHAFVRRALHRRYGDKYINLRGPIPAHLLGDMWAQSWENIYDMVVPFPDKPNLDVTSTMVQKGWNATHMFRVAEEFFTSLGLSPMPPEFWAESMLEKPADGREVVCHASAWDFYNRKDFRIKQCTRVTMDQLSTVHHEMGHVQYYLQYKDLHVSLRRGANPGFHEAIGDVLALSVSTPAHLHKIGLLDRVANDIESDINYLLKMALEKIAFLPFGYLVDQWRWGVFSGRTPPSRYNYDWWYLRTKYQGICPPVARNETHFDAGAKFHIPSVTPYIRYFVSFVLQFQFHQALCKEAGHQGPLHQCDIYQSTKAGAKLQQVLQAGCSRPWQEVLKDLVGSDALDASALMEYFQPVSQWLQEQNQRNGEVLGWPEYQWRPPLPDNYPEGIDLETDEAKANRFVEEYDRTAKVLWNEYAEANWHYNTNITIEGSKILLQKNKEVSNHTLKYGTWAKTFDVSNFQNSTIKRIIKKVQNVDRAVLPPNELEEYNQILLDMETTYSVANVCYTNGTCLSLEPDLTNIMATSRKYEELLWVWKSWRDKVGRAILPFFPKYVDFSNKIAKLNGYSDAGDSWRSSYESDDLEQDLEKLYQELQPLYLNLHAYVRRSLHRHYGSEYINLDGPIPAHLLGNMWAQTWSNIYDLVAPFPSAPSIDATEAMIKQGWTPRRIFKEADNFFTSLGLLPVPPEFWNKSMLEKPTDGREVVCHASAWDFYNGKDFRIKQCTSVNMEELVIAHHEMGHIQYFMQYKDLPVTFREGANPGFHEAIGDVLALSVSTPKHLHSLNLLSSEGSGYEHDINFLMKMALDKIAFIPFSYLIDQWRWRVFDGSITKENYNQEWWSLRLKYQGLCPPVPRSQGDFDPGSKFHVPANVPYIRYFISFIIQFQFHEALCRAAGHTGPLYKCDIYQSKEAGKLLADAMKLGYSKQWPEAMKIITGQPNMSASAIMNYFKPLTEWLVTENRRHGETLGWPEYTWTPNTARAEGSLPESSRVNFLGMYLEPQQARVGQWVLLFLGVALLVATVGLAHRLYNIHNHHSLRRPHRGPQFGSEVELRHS
In words: In vitro inhibitory activity against Angiotensin I converting enzyme at 100 uM concentration.

For test [2], the target named is T1, Angiotensin-converting enzyme (Rattus norvegicus). Put plainly: Inhibition of Angiotensin I converting enzyme at the dose of 30 mg/kg (po) in rat. The test is classed as organism-based. Further details: dose 30 mg/kg; scale not given: the % may be the effect or the level left.
The subject of test [3] is Canis familiaris. In words: Diuretic activity (po);NI- No Increase. As to conditions: Canis lupus familiaris; Urine. It counts as functional, organism-based.
The species named for test [4] is Rattus norvegicus. Put plainly: Duration of action of the compound. It counts as functional.
Test [5] has as its target T1, Angiotensin-converting enzyme (Rattus norvegicus). Put plainly: Inhibition of Angiotensin I converting enzyme(ACE) at the dose of 10 mg/kg (po) in rat. It counts as organism-based. More on the design: dose 10 mg/kg.
Test [6] addresses T2, Angiotensin-converting enzyme (Rattus norvegicus, UniProt P47820).
T2 sequence (P47820 whole entry): T1 sequence (whole entry)
In words: In vitro inhibitory activity against Angiotensin I converting enzyme(ACE).

Test [7] relates to Rattus norvegicus. In words: Diuretic activity (po); N-Natriuresis. It counts as functional, organism-based. As to conditions: Urine.
The species entered for test [8] is Rattus norvegicus. In words: Duration of action on ACE in rat. It counts as functional.
For test [9], the target named is T1, Angiotensin-converting enzyme (Rattus norvegicus). In words: Inhibition of Angiotensin I converting enzyme(ACE) at the dose of 100 mg/kg (ip) in rat. It counts as organism-based. More on the design: dose 100 mg/kg.
Test [10] shares this target. Put plainly: Inhibition of Angiotensin I converting enzyme(ACE) at the dose of 100 mg/kg (po) in rat. Further details: dose 100 mg/kg. The test is classed as organism-based.
The target is the same in test [11]. Put plainly: Inhibition of Angiotensin I converting enzyme(ACE) at the dose of 30 mg/kg (po) in rat. The test is classed as organism-based. Further details: dose 30 mg/kg.
Test [12] concerns the target Angiotensin-converting enzyme (Homo sapiens) (UniProt P12821). In words: Inhibition of Angiotensin I converting enzyme(ACE) at the dose of 100 mg/kg (ip) in dog. Further details: dose 100 mg/kg. The test is classed as organism-based. As to conditions: Canis lupus familiaris; target entry is the homologue from another species.
Test [13] deals with Canis familiaris. Put plainly: Diuretic activity (po) in dog; NI-No Increase. The test is classed as functional, organism-based. As to conditions: Canis lupus familiaris; Urine.
Test [14] deals with Canis familiaris. In words: Maximum percent decrease in blood pressure at the dose of 100 mg/kg ip. It counts as functional, Canis lupus familiaris. As to conditions: route intraperitoneal.
The subject of test [15] is Rattus norvegicus. In words: Diuretic activity (po); ND-Natriuresis&diuresis. The test is classed as functional, organism-based. As to conditions: Urine.
In test [16] the test system is Canis familiaris. Put plainly: Diuretic activity (ip) was tested in dogs; NI-No Increase. It counts as functional, organism-based. As to conditions: Canis lupus familiaris; Urine.
Test [17] relates to Canis familiaris. Put plainly: Maximum percent decrease in blood pressure at the dose of 1.0 mg/kg ip. The test is classed as functional, Canis lupus familiaris. As to conditions: route intraperitoneal.
Test [18] deals with Angiotensin-converting enzyme (Homo sapiens) (UniProt P12821). Put plainly: […] inhibitory activity against angiotensin I converting enzyme (ACE) in dog.
Angiotensin-converting enzyme (Homo sapiens), sequence (P12821 whole entry): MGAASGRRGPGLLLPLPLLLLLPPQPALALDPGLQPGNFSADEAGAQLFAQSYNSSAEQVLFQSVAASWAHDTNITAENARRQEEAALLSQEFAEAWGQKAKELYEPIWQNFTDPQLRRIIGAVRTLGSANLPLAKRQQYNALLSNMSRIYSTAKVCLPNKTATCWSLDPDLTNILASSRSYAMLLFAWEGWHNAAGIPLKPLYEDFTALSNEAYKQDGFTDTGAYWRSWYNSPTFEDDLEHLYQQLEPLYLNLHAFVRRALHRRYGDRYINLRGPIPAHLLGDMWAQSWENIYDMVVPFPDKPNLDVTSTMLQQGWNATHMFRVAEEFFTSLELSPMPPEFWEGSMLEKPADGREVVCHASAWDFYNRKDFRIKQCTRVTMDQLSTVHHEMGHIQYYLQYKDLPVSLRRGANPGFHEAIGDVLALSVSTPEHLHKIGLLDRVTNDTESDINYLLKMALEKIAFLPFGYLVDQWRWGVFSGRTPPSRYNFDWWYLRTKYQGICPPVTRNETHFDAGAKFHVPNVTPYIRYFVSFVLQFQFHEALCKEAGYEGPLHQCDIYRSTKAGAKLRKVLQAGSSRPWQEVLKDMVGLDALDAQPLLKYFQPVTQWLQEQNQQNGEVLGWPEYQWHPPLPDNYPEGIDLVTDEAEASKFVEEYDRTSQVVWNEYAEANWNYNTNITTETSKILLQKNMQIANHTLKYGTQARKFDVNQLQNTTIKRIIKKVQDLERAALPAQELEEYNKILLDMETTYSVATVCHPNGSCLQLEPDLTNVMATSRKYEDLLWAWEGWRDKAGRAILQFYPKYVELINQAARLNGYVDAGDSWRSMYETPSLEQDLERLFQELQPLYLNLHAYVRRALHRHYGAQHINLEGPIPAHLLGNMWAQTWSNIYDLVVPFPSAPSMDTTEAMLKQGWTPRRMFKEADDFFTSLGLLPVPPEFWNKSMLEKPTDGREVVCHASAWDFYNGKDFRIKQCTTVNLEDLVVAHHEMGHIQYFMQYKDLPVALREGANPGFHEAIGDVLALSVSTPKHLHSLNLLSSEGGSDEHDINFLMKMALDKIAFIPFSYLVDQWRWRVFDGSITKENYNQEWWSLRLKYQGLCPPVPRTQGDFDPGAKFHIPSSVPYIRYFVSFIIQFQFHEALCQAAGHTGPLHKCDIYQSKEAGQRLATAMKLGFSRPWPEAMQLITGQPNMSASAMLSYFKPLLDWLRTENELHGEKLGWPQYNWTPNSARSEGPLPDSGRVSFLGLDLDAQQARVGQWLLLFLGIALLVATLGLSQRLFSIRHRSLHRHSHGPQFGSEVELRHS
Test [19] has as its system Canis familiaris. Put plainly: Diuretic activity (ip) was tested in dogs;ND- Natriuresis and diuresis. As to conditions: Canis lupus familiaris; Urine. The test is classed as functional, organism-based.
Test [20] concerns the target T1, Angiotensin-converting enzyme (Rattus norvegicus). Put plainly: Inhibition of Angiotensin I converting enzyme(ACE) at the dose of 30 mg/kg (ip) in rat. It counts as organism-based. More on the design: dose 30 mg/kg; scale not given: the % may be the effect or the level left.
For test [21], the system named is Rattus norvegicus. Put plainly: Diuretic activity (po); NI-No Increase. It counts as functional, organism-based. As to conditions: Urine.

With `CCOC(=O)[C@H](CCc1ccccc1)N[C@@H](C)C(=O)N(CC(=O)O)NC(=O)c1ccc(Cl)c(S(N)(=O)=O)c1.Cl`, the inhibition (as a rule, the relative decrease from the control value, in per cent) in test [1] was 40%. Moreover, the Activity in test [2] is 50%; in the test on Canis familiaris [3] it was “No increase”. Further, the Duration in the test listed under Rattus norvegicus [4] was < 1 h.
In turn, `C[C@H](N[C@@H](CCc1ccccc1)C(=O)O)C(=O)N(Cc1ccccc1)[C@H](CCCCNc1cc(Cl)c(C(=O)O)cc1S(N)(=O)=O)C(=O)O.Cl` registered an ACE inhibition in test [5] of 80%. Also, half-maximal inhibition in [6] (IC50) was put at 2400 nM. Further, the Activity result with Rattus norvegicus [7] is on record as “N”. Besides, the Duration in the test filed under Rattus norvegicus [8] was found to be 0 h.
Consider `C[C@H](N[C@@H](CCc1ccccc1)C(=O)O)C(=O)N(CC(=O)O)CC1Nc2cc(Cl)c(S(N)(=O)=O)cc2S(=O)(=O)N1` (stereo partly drawn), for which the ACE inhibition in [9] stood at 100%; in test [10], 80%; in test [5], 50%; in test [11], 50%. For the same compound, the 50% inhibitory concentration (IC50) – broadly, the point on the concentration scale where inhibition reaches its midpoint – in [6] was determined as 38000 nM. This compound gave an inhibition in test [12] of 100%. Also, the Activity result with Canis familiaris [13] is “No increase”; in the test with Rattus norvegicus [15], “Natriuresis and diuresis”. The compound further had a Decrease in the test with Canis familiaris [14] of 21%. In addition, the Duration in the test listed under Rattus norvegicus [8] is >3 h.
As to `CCOC(=O)[C@H](CCc1ccccc1)N[C@@H](C)C(=O)N1CCC[C@H]1C(=O)O` [ENALAPRIL], in the test on Canis familiaris [16], the result was inactive. The Decrease in the test with Canis familiaris [17] was found to be 38%.
With `NS(=O)(=O)c1cc2c(cc1Cl)NCNS2(=O)=O` [HYDROCHLOROTHIAZIDE], the 50% effective dose (ED50) – broadly, the dose at which the effect has come halfway, by size or by number of responders – in [18] is > 100 mg/kg. Besides, the outcome in the test with Canis familiaris [19] was Active. The compound also came in with a Decrease with Canis familiaris [14] of 0%.
Regarding `C[C@H](N[C@@H](CCc1ccccc1)C(=O)O)C(=O)N(Cc1ccccc1)[C@H](CCCCNc1cc(Cl)c(S(N)(=O)=O)cc1C(=O)O)C(=O)O.Cl`, the Activity in test [20] is < 30%; in the test with Rattus norvegicus [21] it was “No increase”. The same compound yielded an ACE inhibition in test [11] of 50%. Besides, it took 680 nM to reach half-maximal inhibition in test [6] (IC50). For the same compound, the Duration in the test listed under Rattus norvegicus [8] is <1 h.
